Data reported in the kinase profiling compilation of Christmann-Franck et al. (2016).

How the values were obtained:
Experiment in all cases: KINOMEscan competition binding
Conditions in all cases: compound 10.0 µM
FGFR2 (human) = FGFR2 (human) (UniProt P21802)
CAMK2G (human) = CAMK2G (human) (UniProt Q13555)
STK3 (human) = STK3 (human) (UniProt Q13188)
AURKA (human) = AURKA (human) (UniProt O14965)
EIF2AK2 (human) = EIF2AK2 (human) (UniProt P19525)
CAMK2A (human) = CAMK2A (human) (UniProt Q9UQM7)
LATS2 (human) = LATS2 (human) (UniProt Q9NRM7)
EPHA6 (human) = EPHA6 (human) (UniProt Q9UF33)
INSR (human) = INSR (human) (UniProt P06213)
SIK2 (human) = SIK2 (human) (UniProt Q9H0K1)
MAPK4 (human) = MAPK4 (human) (UniProt P31152)
DDR2 (human) = DDR2 (human) (UniProt Q16832)
[1] = system: ABL1 (human), P00519 [M351T]
TIE1 (human) = TIE1 (human) (UniProt P35590)
EPHA2 (human) = EPHA2 (human) (UniProt P29317)
ROS1 (human) = ROS1 (human) (UniProt P08922)
PRKG1 (human) = PRKG1 (human) (UniProt Q13976)
Sequence of PRKG1 (human) (Q13976 whole entry, looked up): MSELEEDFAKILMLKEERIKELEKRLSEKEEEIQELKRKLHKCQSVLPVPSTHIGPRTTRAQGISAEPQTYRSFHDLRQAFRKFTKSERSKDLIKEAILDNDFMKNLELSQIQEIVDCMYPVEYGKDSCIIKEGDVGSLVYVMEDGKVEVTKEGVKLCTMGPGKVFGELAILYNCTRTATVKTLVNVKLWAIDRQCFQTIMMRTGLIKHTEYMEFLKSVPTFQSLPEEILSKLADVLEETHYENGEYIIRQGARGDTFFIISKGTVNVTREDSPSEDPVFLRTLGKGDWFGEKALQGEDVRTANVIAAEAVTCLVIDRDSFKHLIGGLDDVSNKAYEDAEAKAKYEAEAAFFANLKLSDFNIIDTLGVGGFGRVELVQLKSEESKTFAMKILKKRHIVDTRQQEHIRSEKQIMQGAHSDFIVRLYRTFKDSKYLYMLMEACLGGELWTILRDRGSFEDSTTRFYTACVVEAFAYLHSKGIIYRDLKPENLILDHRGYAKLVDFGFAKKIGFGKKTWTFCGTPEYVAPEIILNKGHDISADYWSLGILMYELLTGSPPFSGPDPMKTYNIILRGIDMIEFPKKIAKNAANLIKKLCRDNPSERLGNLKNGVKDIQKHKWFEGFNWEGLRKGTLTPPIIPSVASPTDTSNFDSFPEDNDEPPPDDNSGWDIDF

STK10 (human) = STK10 (human) (UniProt O94804)
PRKD2 (human) = PRKD2 (human) (UniProt Q9BZL6)
CDK18 (human) = CDK18 (human) (UniProt Q07002)
TESK1 (human) = TESK1 (human) (UniProt Q15569)
Sequence of TESK1 (human) (Q15569 whole entry, looked up): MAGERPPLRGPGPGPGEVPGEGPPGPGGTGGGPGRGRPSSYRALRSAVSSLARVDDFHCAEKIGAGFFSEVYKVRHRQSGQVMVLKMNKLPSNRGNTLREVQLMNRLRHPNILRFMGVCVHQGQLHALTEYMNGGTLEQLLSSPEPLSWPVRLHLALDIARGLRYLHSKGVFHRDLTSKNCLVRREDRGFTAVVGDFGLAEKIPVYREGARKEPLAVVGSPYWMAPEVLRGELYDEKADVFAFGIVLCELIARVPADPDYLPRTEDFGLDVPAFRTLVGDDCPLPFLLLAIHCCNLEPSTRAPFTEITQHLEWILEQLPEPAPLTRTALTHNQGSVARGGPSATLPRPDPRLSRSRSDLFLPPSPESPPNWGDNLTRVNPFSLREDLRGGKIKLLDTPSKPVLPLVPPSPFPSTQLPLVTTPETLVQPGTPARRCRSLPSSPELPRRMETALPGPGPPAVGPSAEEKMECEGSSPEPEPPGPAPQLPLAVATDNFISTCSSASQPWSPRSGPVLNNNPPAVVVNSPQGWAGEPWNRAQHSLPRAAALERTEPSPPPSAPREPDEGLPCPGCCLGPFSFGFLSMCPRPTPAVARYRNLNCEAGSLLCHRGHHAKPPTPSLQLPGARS

ALK (human) = ALK (human) (UniProt Q9UM73)
MARK3 (human) = MARK3 (human) (UniProt P27448)
ZAP70 (human) = ZAP70 (human) (UniProt P43403)
PKMYT1 (human) = PKMYT1 (human) (UniProt Q99640)
FYN (human) = FYN (human) (UniProt P06241)
Sequence of FYN (human) (P06241 whole entry, looked up): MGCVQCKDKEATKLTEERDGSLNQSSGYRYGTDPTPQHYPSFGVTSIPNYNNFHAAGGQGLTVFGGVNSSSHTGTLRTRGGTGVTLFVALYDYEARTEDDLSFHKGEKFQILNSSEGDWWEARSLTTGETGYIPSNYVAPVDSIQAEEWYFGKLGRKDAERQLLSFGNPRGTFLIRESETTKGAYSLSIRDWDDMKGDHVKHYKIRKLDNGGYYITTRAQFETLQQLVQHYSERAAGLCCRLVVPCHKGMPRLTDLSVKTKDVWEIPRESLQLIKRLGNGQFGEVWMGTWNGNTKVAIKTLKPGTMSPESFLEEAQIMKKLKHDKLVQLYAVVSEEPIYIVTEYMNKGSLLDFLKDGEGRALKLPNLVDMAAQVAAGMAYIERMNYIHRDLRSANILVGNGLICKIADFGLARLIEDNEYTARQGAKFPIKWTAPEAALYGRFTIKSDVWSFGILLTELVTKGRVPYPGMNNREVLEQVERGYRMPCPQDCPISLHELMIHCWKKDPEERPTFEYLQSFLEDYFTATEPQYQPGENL

MAP3K12 (human) = MAP3K12 (human) (UniProt Q12852)
PIK3CD (human) = PIK3CD (human) (UniProt O00329)
EPHB3 (human) = EPHB3 (human) (UniProt P54753)
Sequence of EPHB3 (human) (P54753 whole entry, looked up): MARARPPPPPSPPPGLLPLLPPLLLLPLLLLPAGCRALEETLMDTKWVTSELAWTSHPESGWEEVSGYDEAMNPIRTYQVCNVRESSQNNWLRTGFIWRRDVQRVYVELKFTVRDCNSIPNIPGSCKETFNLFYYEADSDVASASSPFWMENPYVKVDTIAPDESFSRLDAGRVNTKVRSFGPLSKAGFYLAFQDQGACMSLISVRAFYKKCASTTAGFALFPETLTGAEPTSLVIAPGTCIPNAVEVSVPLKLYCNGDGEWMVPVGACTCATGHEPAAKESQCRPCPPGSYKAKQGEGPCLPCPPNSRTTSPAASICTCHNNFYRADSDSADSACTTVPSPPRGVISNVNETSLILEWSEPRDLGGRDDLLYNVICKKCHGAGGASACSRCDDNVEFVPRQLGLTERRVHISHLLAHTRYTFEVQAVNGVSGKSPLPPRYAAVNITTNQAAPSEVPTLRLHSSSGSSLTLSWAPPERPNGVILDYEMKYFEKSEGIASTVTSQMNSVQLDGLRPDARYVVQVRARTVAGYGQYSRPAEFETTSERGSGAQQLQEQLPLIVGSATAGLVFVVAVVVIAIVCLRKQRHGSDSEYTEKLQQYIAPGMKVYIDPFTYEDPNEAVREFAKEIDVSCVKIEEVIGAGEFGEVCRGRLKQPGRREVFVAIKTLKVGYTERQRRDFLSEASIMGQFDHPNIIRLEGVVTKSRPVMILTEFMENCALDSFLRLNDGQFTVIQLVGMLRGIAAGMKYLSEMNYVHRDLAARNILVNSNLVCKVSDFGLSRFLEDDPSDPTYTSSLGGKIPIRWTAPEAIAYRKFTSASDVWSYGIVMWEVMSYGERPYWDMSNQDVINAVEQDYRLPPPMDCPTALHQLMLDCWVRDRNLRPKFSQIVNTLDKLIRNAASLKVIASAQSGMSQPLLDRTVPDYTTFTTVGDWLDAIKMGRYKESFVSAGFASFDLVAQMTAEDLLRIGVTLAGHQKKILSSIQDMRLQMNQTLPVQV

LATS1 (human) = LATS1 (human) (UniProt O95835)
Sequence of LATS1 (human) (O95835 whole entry, looked up): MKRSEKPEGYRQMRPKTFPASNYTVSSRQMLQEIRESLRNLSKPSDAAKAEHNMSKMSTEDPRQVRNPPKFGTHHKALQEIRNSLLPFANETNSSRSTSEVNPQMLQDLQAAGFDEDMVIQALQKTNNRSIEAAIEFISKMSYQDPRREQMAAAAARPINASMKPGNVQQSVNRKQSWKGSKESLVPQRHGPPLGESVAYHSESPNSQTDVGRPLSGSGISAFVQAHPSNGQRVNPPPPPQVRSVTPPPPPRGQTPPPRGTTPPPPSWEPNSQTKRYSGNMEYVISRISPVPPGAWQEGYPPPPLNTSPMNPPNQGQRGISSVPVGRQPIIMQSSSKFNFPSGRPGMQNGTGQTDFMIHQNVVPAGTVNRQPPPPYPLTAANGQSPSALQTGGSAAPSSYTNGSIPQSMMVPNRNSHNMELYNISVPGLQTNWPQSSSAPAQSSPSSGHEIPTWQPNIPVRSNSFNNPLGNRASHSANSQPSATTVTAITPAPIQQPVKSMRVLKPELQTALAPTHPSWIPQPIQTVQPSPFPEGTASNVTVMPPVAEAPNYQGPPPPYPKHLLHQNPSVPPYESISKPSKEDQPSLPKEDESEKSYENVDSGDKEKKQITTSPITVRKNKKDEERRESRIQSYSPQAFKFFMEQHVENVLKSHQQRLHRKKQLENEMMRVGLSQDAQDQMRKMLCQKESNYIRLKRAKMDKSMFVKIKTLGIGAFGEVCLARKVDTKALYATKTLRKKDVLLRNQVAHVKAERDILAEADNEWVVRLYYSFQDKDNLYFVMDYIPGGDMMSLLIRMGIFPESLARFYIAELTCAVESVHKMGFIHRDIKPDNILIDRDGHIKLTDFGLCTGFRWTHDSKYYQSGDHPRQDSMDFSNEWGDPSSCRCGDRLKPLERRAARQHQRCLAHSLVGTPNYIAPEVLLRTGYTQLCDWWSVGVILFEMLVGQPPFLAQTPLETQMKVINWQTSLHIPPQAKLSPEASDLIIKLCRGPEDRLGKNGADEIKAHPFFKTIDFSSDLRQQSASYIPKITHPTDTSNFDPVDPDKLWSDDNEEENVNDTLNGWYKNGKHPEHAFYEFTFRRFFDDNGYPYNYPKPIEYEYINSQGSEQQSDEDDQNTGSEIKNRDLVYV

BMPR1A (human) = BMPR1A (human) (UniProt P36894)
CDKL2 (human) = CDKL2 (human) (UniProt Q92772)
TNNI3K (human) = TNNI3K (human) (UniProt Q59H18)
MARK2 (human) = MARK2 (human) (UniProt Q7KZI7)
MLTK (human) = MLTK (human) (UniProt Q9NYL2)
PLK1 (human) = PLK1 (human) (UniProt P53350)
PRKCQ (human) = PRKCQ (human) (UniProt Q04759)
[2] = system: RET (human), P07949 [M918T]
[3] = system: FGFR3 (human), P22607 [G697C]
CDC42BPA (human) = CDC42BPA (human) (UniProt Q5VT25)
STK38L (human) = STK38L (human) (UniProt Q9Y2H1)
RAF1 (human) = RAF1 (human) (UniProt P04049)

Sequence of CAMK2G (human) (Q13555 whole entry, looked up): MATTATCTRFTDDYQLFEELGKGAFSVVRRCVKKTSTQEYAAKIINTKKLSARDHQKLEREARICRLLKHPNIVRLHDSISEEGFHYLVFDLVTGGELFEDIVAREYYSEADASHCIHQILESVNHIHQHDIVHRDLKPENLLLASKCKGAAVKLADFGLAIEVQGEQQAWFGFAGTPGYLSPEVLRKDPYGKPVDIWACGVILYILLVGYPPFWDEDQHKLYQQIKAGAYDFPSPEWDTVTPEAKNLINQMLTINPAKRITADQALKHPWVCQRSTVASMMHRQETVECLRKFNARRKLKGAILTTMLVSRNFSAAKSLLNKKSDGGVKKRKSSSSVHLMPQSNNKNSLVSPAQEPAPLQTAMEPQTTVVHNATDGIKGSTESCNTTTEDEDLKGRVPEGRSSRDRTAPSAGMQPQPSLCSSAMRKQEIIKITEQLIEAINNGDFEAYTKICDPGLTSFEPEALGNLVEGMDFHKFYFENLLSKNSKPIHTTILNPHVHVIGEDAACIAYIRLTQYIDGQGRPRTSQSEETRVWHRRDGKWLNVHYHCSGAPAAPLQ
Sequence of STK3 (human) (Q13188 whole entry, looked up): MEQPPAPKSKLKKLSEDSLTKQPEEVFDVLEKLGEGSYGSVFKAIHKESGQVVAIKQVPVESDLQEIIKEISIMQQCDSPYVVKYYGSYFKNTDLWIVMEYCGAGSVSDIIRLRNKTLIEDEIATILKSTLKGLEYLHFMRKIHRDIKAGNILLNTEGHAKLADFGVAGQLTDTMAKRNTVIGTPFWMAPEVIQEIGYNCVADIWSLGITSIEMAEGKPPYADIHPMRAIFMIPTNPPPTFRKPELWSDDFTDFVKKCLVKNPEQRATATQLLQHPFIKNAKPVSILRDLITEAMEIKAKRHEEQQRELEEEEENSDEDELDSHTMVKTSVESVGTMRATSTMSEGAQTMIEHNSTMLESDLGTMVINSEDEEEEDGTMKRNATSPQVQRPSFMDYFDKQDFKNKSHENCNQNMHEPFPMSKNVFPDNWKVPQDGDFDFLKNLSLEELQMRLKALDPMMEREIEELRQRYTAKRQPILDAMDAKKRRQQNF

Question: With `COc1cc(N2CCC(O)CC2)ccc1Nc1ncc2c(n1)N1CCc3cccc(c31)C(=O)N2C` as the compound, how does the kinase still bound, per cent of control (FGFR2 (human)) read?
Answer: Its kinase still bound, per cent of control is 95%.

Question: And the kinase still bound, per cent of control (CAMK2G (human))?
Answer: Its kinase still bound, per cent of control is 80%.

Question: What about the kinase still bound, per cent of control (STK3 (human)) of the same compound?
Answer: The kinase still bound, per cent of control was 84%.

Question: And the kinase still bound, per cent of control (AURKA (human))?
Answer: Its kinase still bound, per cent of control is 23%.

Question: What about the kinase still bound, per cent of control (EIF2AK2 (human)) of the same compound?
Answer: Its kinase still bound, per cent of control is 48%.

Question: And the kinase still bound, per cent of control (CAMK2A (human))?
Answer: The kinase still bound, per cent of control was 80%.

Question: And the kinase still bound, per cent of control (LATS2 (human))?
Answer: Its kinase still bound, per cent of control is 100%.

Question: What about the kinase still bound, per cent of control (EPHA6 (human)) of the same compound?
Answer: The kinase still bound, per cent of control was 82%.

Question: And the kinase still bound, per cent of control (INSR (human))?
Answer: Its kinase still bound, per cent of control is 53%.

Question: What about the kinase still bound, per cent of control (SIK2 (human)) of the same compound?
Answer: Its kinase still bound, per cent of control is 100%.

Question: What about the kinase still bound, per cent of control (MAPK4 (human)) of the same compound?
Answer: Its kinase still bound, per cent of control is 100%.

Question: And the kinase still bound, per cent of control (DDR2 (human))?
Answer: Its kinase still bound, per cent of control is 90%.

Question: What about the kinase still bound, per cent of control [1] of the same compound?
Answer: Its kinase still bound, per cent of control is 93%.

Question: And the kinase still bound, per cent of control (TIE1 (human))?
Answer: Its kinase still bound, per cent of control is 94%.

Question: And the kinase still bound, per cent of control (EPHA2 (human))?
Answer: Its kinase still bound, per cent of control is 95%.

Question: And the kinase still bound, per cent of control (ROS1 (human))?
Answer: The kinase still bound, per cent of control was 29%.

Question: What about the kinase still bound, per cent of control (PRKG1 (human)) of the same compound?
Answer: Its kinase still bound, per cent of control is 85%.

Question: And the kinase still bound, per cent of control (STK10 (human))?
Answer: Its kinase still bound, per cent of control is 100%.

Question: What about the kinase still bound, per cent of control (PRKD2 (human)) of the same compound?
Answer: Its kinase still bound, per cent of control is 45%.

Question: What about the kinase still bound, per cent of control (CDK18 (human)) of the same compound?
Answer: Its kinase still bound, per cent of control is 100%.

Question: What about the kinase still bound, per cent of control (TESK1 (human)) of the same compound?
Answer: The kinase still bound, per cent of control was 100%.

Question: And the kinase still bound, per cent of control (ALK (human))?
Answer: The kinase still bound, per cent of control was 36%.

Question: And the kinase still bound, per cent of control (MARK3 (human))?
Answer: Its kinase still bound, per cent of control is 88%.

Question: What about the kinase still bound, per cent of control (ZAP70 (human)) of the same compound?
Answer: Its kinase still bound, per cent of control is 65%.

Question: What about the kinase still bound, per cent of control (PKMYT1 (human)) of the same compound?
Answer: Its kinase still bound, per cent of control is 69%.

Question: What about the kinase still bound, per cent of control (FYN (human)) of the same compound?
Answer: Its kinase still bound, per cent of control is 100%.

Question: What about the kinase still bound, per cent of control (MAP3K12 (human)) of the same compound?
Answer: Its kinase still bound, per cent of control is 71%.

Question: And the kinase still bound, per cent of control (PIK3CD (human))?
Answer: The kinase still bound, per cent of control was 48%.

Question: And the kinase still bound, per cent of control (EPHB3 (human))?
Answer: Its kinase still bound, per cent of control is 100%.

Question: What about the kinase still bound, per cent of control (LATS1 (human)) of the same compound?
Answer: The kinase still bound, per cent of control was 100%.

Question: And the kinase still bound, per cent of control (BMPR1A (human))?
Answer: The kinase still bound, per cent of control was 100%.

Question: What about the kinase still bound, per cent of control (CDKL2 (human)) of the same compound?
Answer: Its kinase still bound, per cent of control is 100%.

Question: And the kinase still bound, per cent of control (TNNI3K (human))?
Answer: The kinase still bound, per cent of control was 100%.

Question: And the kinase still bound, per cent of control (MARK2 (human))?
Answer: Its kinase still bound, per cent of control is 97%.

Question: What about the kinase still bound, per cent of control (MLTK (human)) of the same compound?
Answer: The kinase still bound, per cent of control was 100%.

Question: What about the kinase still bound, per cent of control (PLK1 (human)) of the same compound?
Answer: Its kinase still bound, per cent of control is 0.2%.

Question: What about the kinase still bound, per cent of control (PRKCQ (human)) of the same compound?
Answer: Its kinase still bound, per cent of control is 97%.

Question: What about the kinase still bound, per cent of control [2] of the same compound?
Answer: The kinase still bound, per cent of control was 100%.

Question: And the kinase still bound, per cent of control [3]?
Answer: The kinase still bound, per cent of control was 97%.

Question: And the kinase still bound, per cent of control (CDC42BPA (human))?
Answer: The kinase still bound, per cent of control was 100%.

Question: What about the kinase still bound, per cent of control (STK38L (human)) of the same compound?
Answer: Its kinase still bound, per cent of control is 94%.

Question: And the kinase still bound, per cent of control (RAF1 (human))?
Answer: Its kinase still bound, per cent of control is 98%.

Question: Which results are given for `COc1cc(N2CCN(C)CC2)ccc1Nc1ncc2c(n1)N(C)c1ccccc1N(C)C2=O`?
Answer: kinase still bound, per cent of control (FGFR2 (human)): 100%; kinase still bound, per cent of control (CAMK2G (human)): 95%; kinase still bound, per cent of control (STK3 (human)): 98%; kinase still bound, per cent of control (AURKA (human)): 76%; kinase still bound, per cent of control (EIF2AK2 (human)): 93%; kinase still bound, per cent of control (CAMK2A (human)): 75%; kinase still bound, per cent of control (LATS2 (human)): 75%; kinase still bound, per cent of control (EPHA6 (human)): 100%; kinase still bound, per cent of control (INSR (human)): 52%; kinase still bound, per cent of control (SIK2 (human)): 89%; kinase still bound, per cent of control (MAPK4 (human)): 100%; kinase still bound, per cent of control (DDR2 (human)): 100%; kinase still bound, per cent of control [1]: 78%; kinase still bound, per cent of control (TIE1 (human)): 70%; kinase still bound, per cent of control (EPHA2 (human)): 100%; kinase still bound, per cent of control (ROS1 (human)): 21%; kinase still bound, per cent of control (PRKG1 (human)): 100%; kinase still bound, per cent of control (STK10 (human)): 100%; kinase still bound, per cent of control (PRKD2 (human)): 100%; kinase still bound, per cent of control (CDK18 (human)): 100%; kinase still bound, per cent of control (TESK1 (human)): 76%; kinase still bound, per cent of control (ALK (human)): 11%; kinase still bound, per cent of control (MARK3 (human)): 98%; kinase still bound, per cent of control (ZAP70 (human)): 100%; kinase still bound, per cent of control (PKMYT1 (human)): 96%; kinase still bound, per cent of control (FYN (human)): 100%; kinase still bound, per cent of control (MAP3K12 (human)): 100%; kinase still bound, per cent of control (PIK3CD (human)): 100%; kinase still bound, per cent of control (EPHB3 (human)): 100%; kinase still bound, per cent of control (LATS1 (human)): 94%; kinase still bound, per cent of control (BMPR1A (human)): 100%; kinase still bound, per cent of control (CDKL2 (human)): 81%; kinase still bound, per cent of control (TNNI3K (human)): 100%; kinase still bound, per cent of control (MARK2 (human)): 100%; kinase still bound, per cent of control (MLTK (human)): 100%; kinase still bound, per cent of control (PLK1 (human)): 100%; kinase still bound, per cent of control (PRKCQ (human)): 83%; kinase still bound, per cent of control [2]: 100%; kinase still bound, per cent of control [3]: 100%; kinase still bound, per cent of control (CDC42BPA (human)): 100%; kinase still bound, per cent of control (STK38L (human)): 100%; kinase still bound, per cent of control (RAF1 (human)): 94%

Question: What does the source list for `CN1C(=O)c2ccccc2N(C)c2nc(NS(=O)(=O)c3ccc(N)cc3)ncc21`?
Answer: kinase still bound, per cent of control (FGFR2 (human)): 100%; kinase still bound, per cent of control (CAMK2G (human)): 100%; kinase still bound, per cent of control (STK3 (human)): 87%; kinase still bound, per cent of control (AURKA (human)): 100%; kinase still bound, per cent of control (EIF2AK2 (human)): 91%; kinase still bound, per cent of control (CAMK2A (human)): 100%; kinase still bound, per cent of control (LATS2 (human)): 100%; kinase still bound, per cent of control (EPHA6 (human)): 100%; kinase still bound, per cent of control (INSR (human)): 95%; kinase still bound, per cent of control (SIK2 (human)): 89%; kinase still bound, per cent of control (MAPK4 (human)): 88%; kinase still bound, per cent of control (DDR2 (human)): 98%; kinase still bound, per cent of control [1]: 96%; kinase still bound, per cent of control (TIE1 (human)): 100%; kinase still bound, per cent of control (EPHA2 (human)): 100%; kinase still bound, per cent of control (ROS1 (human)): 100%; kinase still bound, per cent of control (PRKG1 (human)): 100%; kinase still bound, per cent of control (STK10 (human)): 100%; kinase still bound, per cent of control (PRKD2 (human)): 100%; kinase still bound, per cent of control (CDK18 (human)): 100%; kinase still bound, per cent of control (TESK1 (human)): 100%; kinase still bound, per cent of control (ALK (human)): 100%; kinase still bound, per cent of control (MARK3 (human)): 100%; kinase still bound, per cent of control (ZAP70 (human)): 100%; kinase still bound, per cent of control (PKMYT1 (human)): 100%; kinase still bound, per cent of control (FYN (human)): 100%; kinase still bound, per cent of control (MAP3K12 (human)): 90%; kinase still bound, per cent of control (PIK3CD (human)): 91%; kinase still bound, per cent of control (EPHB3 (human)): 100%; kinase still bound, per cent of control (LATS1 (human)): 74%; kinase still bound, per cent of control (BMPR1A (human)): 90%; kinase still bound, per cent of control (CDKL2 (human)): 100%; kinase still bound, per cent of control (TNNI3K (human)): 100%; kinase still bound, per cent of control (MARK2 (human)): 100%; kinase still bound, per cent of control (MLTK (human)): 100%; kinase still bound, per cent of control (PLK1 (human)): 100%; kinase still bound, per cent of control (PRKCQ (human)): 100%; kinase still bound, per cent of control [2]: 100%; kinase still bound, per cent of control [3]: 100%; kinase still bound, per cent of control (CDC42BPA (human)): 90%; kinase still bound, per cent of control (STK38L (human)): 100%; kinase still bound, per cent of control (RAF1 (human)): 100%
